# From patent US20200276165A1, “OVOTIOLS FOR THE TREATMENT OF CHRONIC LOW-GRADE SYSTEMIC INFLAMMATION (CLGSI) AND RELATED DISEASES” (UNIVERSITA' DEGLI STUDI G. D'ANNUNZIO CHIETI - PESCARA, priority 2017, published 2020)
# What was measured:
# cGMP levels in C-HUVECs = assay: Cyclic guanosine mono phosphate assay (cGMP), EIA; format: cell-based, human
# Experimental: Cyclic guanosine mono phosphate assay (cGMP): intracellular cGMP levels were evaluated by using a commercially available Enzyme Immunoassay (EIA) kit (GE Healthcare, Little Chalfont, Buckinghamshire, UK).
# [1] = system: peroxynitrite in GD-HUVECs; assay: Peroxynitrite levels by flow cytometry, HKGreen-4A probe; format: cell-based, human; settings: GD-HUVEC
# Source text: (§1) Cell endothelial cultures and experimental protocols: umbilical cords were obtained from randomly selected healthy Caucasian (Control, C) and with Gestational Diabetes (GD) mothers delivering at the Hospital of Chieti and Pescara. All procedures were in agreement with the ethical standards of the Institutional Committee on Human Experimentation (Reference Number: 1879/09COET) and with the Declaration of Helsinki Principles. After approval of the protocol by the Institutional Review Board, signed informed consent was obtained from each participating subject. Primary C- and GD-HUVECs were obtained and used between the 3rd and 5th passages in vitro. To evaluate the potential cytotoxicity of ovothiol, HUVECs were stimulated for 24 h with different doses (10-100 μM) of ovothiol A. The best doses of ovothiol A were used to evaluate their effects on the cells treated with TNF (1 ng/ml, Sigma Aldrich) which activated the inflammatory response. Briefly, HUVECs were grown to sub-confluence in complete culture medium DMEM/M199 (Mascia Brunelli, Italia). The cells were pre-incubated with ovothiol A (10 and 50 μM) for 24 hours or with medium alone as basal condition. Subsequently the cells were stimulated with TNF for 16 hours.
# (§2) Flow cytometry: for flow cytofluorimetry analysis, C- and GD-HUVECs were stimulated as described in the experimental protocols. Non-permeabilized cells were detached by tetra-acetic ethylene-diamine acid solution (EDTA) 5 mM, washed and resuspended in bovine serum albumin (BSA) 0.5%. Cells harvested by centrifugation at 800 rpm for 15 min were incubated with anti-VCAM-1 PE-conjugate (1:100, phycoerythrin; Biolegend, San Diego, Calif., USA) and anti-ICAM-1 FITC-conjugate (1:100, fluorescein isothiocyanate; Biolegend) antibodies, both for 30 min at 4° C. The intracellular levels of peroxynitrite (ONOO—) were detected in C- and GD-HUVECs by using the HKGreen-4A probe (10 μM, 30 min at 37° C.) synthesized and provided by the laboratory of Prof. Dan Yang's. Reactive Oxygen Species (ROS) levels were evaluated with the fluorogenic reagent dichlorofluorescein diacetate (DCF-DA, Sigma-Aldrich) (20 μM, 45 min at 37° C.). All samples were analyzed using a FACS Calibur or FACS Canto II (BD Bioscences). The levels of membrane proteins (VCAM-1 and ICAM-1), fluorescence detection of ONOO— and ROS were evaluated by cytometric analysis of over 10.000 events for each sample. All data were analyzed using FACS Diva (BD Bioscences) and FlowJo v.8.8.6 software (TreeStar, Ashland, Oreg.) and expressed as percentage (%) of positive cells or MFI (Mean Fluorescence Intensity) Ratio. The MFI Ratio was calculated by dividing the MFI of positive events by the MFI of negative events (MFI of secondary antibody).
# [2] = system: peroxynitrite in C-HUVECs; assay: as above; format: cell-based, human; settings: C-HUVEC
# Source text: as §1, §2
# GD-HUVECs [3] = assay: Analysis of ovothiol A levels in cell cultures (HPLC); format: in vitro ADME, human
# Experimental: (§3) Analysis of Ovothiol A levels in cell cultures: HUVEC cells (1,2×10^6 cellule) were cultured in flasks (25 cm^2) in the absence and in the presence of 50 μM ovothiol A and collected after incubation at different time intervals. The culture media were recovered by centrifugation and frozen for ovothiol A quantitation by HPLC analysis. The cellular pellets were resuspended in PBS pH 7.5, sonicated three times for 15 sec and 30% amplitude. The samples were then centrifuged at 13.000 rpm over 15 min to remove cellular debris, ultrafiltered by Microcon 3 to remove all molecules with MW>3 kDa and frozen for further analysis by HPLC. HPLC analyses were performed in duplicate on an LC10AD instrument equipped with binary pumps and a Shimadzu SPD-10AVP detector set at 254 nm and 280 nm. A Phenomenex Synergi Sphereclone octadecylsilane (25 cm×0.46 cm, 4 μm particle size) column was used with 1% formic acid taken to pH 4.5 with ammonia, as the eluant, at a 0.7 mL/min flow rate.
# C-HUVECs [4] = assay: as above; format: in vitro ADME, human
# Experimental: as §3
# ICAM-1 on C-HUVEC = assay: Flow cytometry, membrane exposure of ICAM-1; format: cell-based, human; settings: 50 μM ovothiol A, TNFα
# Source text: (§4) Cell endothelial cultures and experimental protocols: umbilical cords were obtained from randomly selected healthy Caucasian (Control, C) and with Gestational Diabetes (GD) mothers delivering at the Hospital of Chieti and Pescara. All procedures were in agreement with the ethical standards of the Institutional Committee on Human Experimentation (Reference Number: 1879/09COET) and with the Declaration of Helsinki Principles. After approval of the protocol by the Institutional Review Board, signed informed consent was obtained from each participating subject. Primary C- and GD-HUVECs were obtained and used between the 3rd and 5th passages in vitro. […]
# (§5) Flow cytometry: for flow cytofluorimetry analysis, C- and GD-HUVECs were stimulated as described in the experimental protocols. […] The intracellular levels of peroxynitrite (ONOO—) were detected in C- and GD-HUVECs by using the HKGreen-4A probe (10 μM, 30 min at 37° C.) synthesized and provided by the laboratory of Prof. […] Reactive Oxygen Species (ROS) levels were evaluated with the fluorogenic reagent dichlorofluorescein diacetate (DCF-DA, Sigma-Aldrich) (20 μM, 45 min at 37° C.). All samples were analyzed using a FACS Calibur or FACS Canto II (BD Bioscences). The levels of membrane proteins (VCAM-1 and ICAM-1), fluorescence detection of ONOO— and ROS were evaluated by cytometric analysis of over 10.000 events for each sample. […]
# ICAM-1 on GD-HUVEC = assay: Flow cytometry, membrane exposure of ICAM-1; format: cell-based, human; settings: 50 μM ovothiol A, TNFα
# Source text: as §4, §5
# [5] = system: U937 monocytes adhesion to C-HUVECs; assay: Adhesion of monocytes to endothelium assay; format: cell-based, human; settings: C-HUVEC, 24 hours pre-treatment with 10 and 50 μM, TNFα 1 ng/ml 16 hours
# Source text: as §4
# (§6) Adhesion of monocytes to endothelium assay: adhesion of U937 monocytes to C- and GD-HUVECs was evaluated in the basal state, after 16 hours of TNFα treatment (1 ng/ml) and in presence of ovothiol A (10-50 μM). The cells were grown to confluence in six-well culture plates and U937 adhesion was evaluated as previously described (Di Tomo, P., Lanuti, P., Di Pietro, N., Baldassarre, M. P. A., Marchisio, M., Pandolfi, A., Consoli, A., Formoso, G. (2017) Liraglutide mitigates TNF-α induced pro-atherogenic changes and Microvesicles release in HUVEC from diabetic women. Diabetes Metab. Res. Rev. doi: 10.1002/dmrr.2925).
# [6] = system: U937 monocytes adhesion to GD-HUVECs; assay: Adhesion of monocytes to endothelium assay; format: cell-based, human; settings: GD-HUVEC, 24 hours pre-treatment with 10 and 50 μM, TNFα 1 ng/ml 16 hours
# Source text: as §4, §6
# [7] = Ovothiol A level in medium without the cells (HPLC); format: in vitro ADME; settings: Control: medium without the cells, ovothiol A 50 μM
# Experimental: as §3
# VCAM-1 on C-HUVEC = assay: Flow cytometry, membrane exposure of VCAM-1; format: cell-based, human; settings: 50 μM ovothiol A, TNFα
# Source text: as §4, §5
# VCAM-1 on GD-HUVEC = assay: Flow cytometry, membrane exposure of VCAM-1; format: cell-based, human; settings: 50 μM ovothiol A, TNFα
# Source text: as §4, §5
# Hep-G2 cell line = settings: epatocarcinoma cell lines; cited from earlier work
# ROS in GD-HUVECs = assay: ROS levels by flow cytometry (DCF-DA); format: cell-based, human; settings: GD-HUVEC, under inflammatory conditions (TNFα)
# Source text: as §4, §5
# ROS in C-HUVECs = assay: ROS levels by flow cytometry (DCF-DA); format: cell-based, human; settings: C-HUVEC, in the absence of TNFα
# Source text: as §4, §5
# [8] = system: intracellular GSH in GD-HUVECs; assay: Determination of intracellular glutathione levels (GSH); format: cell-based, human; settings: GD-HUVEC, after 10 minutes of incubation of ovothiol A
# Experimental: as §3, with “A Phenomenex Synergi Sphereclone octadecylsilane (25 cm×0.46 cm, 4 μm particle size) column was used with 1% formic acid taken to pH 4.5 with ammonia, as the eluant, at a 0.7 mL/min flow rate.” left out
# Determination of intracellular glutathione levels (GSH): total GSH was determined by using the Glutathione Assay Kit (Sigma). […] The supernatant was used for the determination of glutathione by performing a kinetic assay in which catalytic amounts (nmoles) of GSH caused a continuous reduction of 5,5-dithiobis (2-nitrobenzoic acid) (DTNB) to 5-thio-2-nitrobenzoic (TNB), measured at 405 nm by a Thermo Scientific™ Multiskan™ FC Microplate Photometer.
# GD-HUVECs [9] = assay: MTT assay, cell viability; format: cell-based, human; settings: GD-HUVEC
# Source text: as §1
# (§7) MTT assay: ovothiol effect on the viability of C- and GD-HUVECs was evaluated by the 3-(4,5 dimethylthiazolyl-2)-2,5-diphenyltetrazolium bromide (MTT, Sigma-Aldrich) assay. 1×10^5 cells were plated in 96-well plates, grown to sub-confluence with the medium alone (as control) or stimulated for 24 h with growing doses of ovothiol A (10-100 μM), in the presence or absence of TNFα stimulation (1 ng/ml). A solution of MTT in phosphate buffer saline (PBS) was added to each well to a final concentration of 5 mg/ml. After 3 h incubation at 37° C., the cellular viability was evaluated before addition of 0.2 ml dimethylsulfoxide (DMSO, Sigma-Aldrich) for crystal solubilization in the vital cells. The absorbance at 540 nm was read using a micro-plate reader (SpectraMAX 190, Molecular Devices Inc., Sunnyvale, Calif., USA) and results were expressed as the absorbance at 540 nm (ABS 540 nm).
# C-HUVECs [10] = assay: MTT assay, cell viability; format: cell-based, human; settings: C-HUVEC
# Source text: as §1, §7
# [11] = Ionomycin 50 nM in combination with PMA 0.3 μM, positive control
# [12] = GD-HUVECs incubated 30 minutes with ovothiol A 50 μM, HPLC
# [13] = C-HUVECs incubated 30 minutes with ovothiol A 50 μM, HPLC
# [14] = pre-treatment with 50 μM, after exposure to TNFα
# [15] = 50 μM, in the presence or absence of TNFα
molecule,measurement,setting,value
"C[C@H](CCC(=O)O)C[C@H](C)C[C@H](C)C(=O)/C=C(\O)[C@H](C)C[C@H](C)C/C=C/[C@@H](C)[C@@H](O)[C@@H](C)[C@@H](O)C[C@@H]1CC[C@@](C)([C@H]2CC[C@@](C)([C@@H](C)O)O2)O1 [Ionomycin, reference compound]",cGMP levels,"cGMP levels in C-HUVECs; C-HUVEC, positive control",induced the increase of cGMP levels
same,peroxynitrite formation,[1]; [11],induced peroxynitrite formation
same,peroxynitrite formation,[2]; [11],induced peroxynitrite formation
"COC(=O)[C@@H](N)CCCNC(=N)N[N+](=O)[O-] [L-NAME, reference compound]","cGMP levels, addition of L-NAME to Ionomycin","cGMP levels in C-HUVECs; C-HUVEC, Ionomycin-stimulated",restored the initial levels
ovothiol A,kinetic decay of the compound in the medium,"GD-HUVECs [3]; GD-HUVEC medium, 50 μM, compared to the medium without the cells",very rapid
same,ovothiol A in cells,GD-HUVECs [3]; [12],1.53 pmol/cell
same,ovothiol A in medium,GD-HUVECs [3]; [12],10.08 ± 1.68 µmol/L
same,kinetic decay of the compound in the medium,"C-HUVECs [4]; C-HUVEC medium, 50 μM, compared to the medium without the cells",very rapid
same,ovothiol A in cells,C-HUVECs [4]; [13],1.18 pmol/cell
same,ovothiol A in medium,C-HUVECs [4]; [13],14.86 ± 1.24 µmol/L
same,effect on ICAM-1 levels (membrane exposure),ICAM-1 on C-HUVEC,did not reach the statistical significance
same,effect on ICAM-1 levels (membrane exposure),ICAM-1 on GD-HUVEC,did not reach the statistical significance
same,U937 cell adhesion (number of adherent cells),[5],only on GD-HUVECs
same,U937 cell adhesion (number of adherent cells),[6],significant reduction
same,ovothiol A in medium,[7],45 µmol/L
same,exposure of VCAM-1 on the membrane,VCAM-1 on C-HUVEC,significantly reduced
same,exposure of VCAM-1 on the membrane,VCAM-1 on GD-HUVEC,significantly reduced
same,"cGMP levels, effect of ovothiol A with TNFα treatment","cGMP levels in C-HUVECs; C-HUVEC, TNFα+Ovot",abolished
same,cGMP levels,"cGMP levels in C-HUVECs; C-HUVEC, ovothiol A treatment",significantly increased
same,"cGMP levels, effect of ovothiol A with L-NAME pre-incubation",cGMP levels in C-HUVECs; pre-incubation with L-NAME 1 mM for 45 minutes,not affected
same,autophagy,Hep-G2 cell line,induces autophagy
same,reduction of reactive oxygen species,Hep-G2 cell line,without inducing a reduction of reactive oxygen species
same,ROS levels,ROS in GD-HUVECs,reduced ROS levels
same,ROS levels,ROS in C-HUVECs,reduced ROS levels
same,levels of peroxynitrite,[1]; [14],significantly reduced
same,levels of peroxynitrite,[2]; [14],significantly reduced
same,intracellular GSH levels,[8],increased significantly
same,cell viability parameters (MTT),GD-HUVECs [9]; [15],no significant changes
same,cytotoxicity (viability by MTT assay),"GD-HUVECs [9]; 100 μM ovothiol A, 24 h",cytotoxic
same,cell viability parameters (MTT),C-HUVECs [10]; [15],no significant changes
same,cytotoxicity (viability by MTT assay),"C-HUVECs [10]; 100 μM ovothiol A, 24 h",cytotoxic
